Here are results for 68 compounds from patent US11896592B2, “Certain triazolopyridines and triazolopyrazines, compositions thereof and methods of use therefor” (Hutchison Medipharma Limited, priority 2009, dated 2024).

Usually IC50 stands for the midpoint of a concentration-inhibition curve.

Read-outs that look alike come from different tables or passages of the source.

The target of this experiment is T1, Recombinant human Met (c-Met) (Homo sapiens, UniProt P08581).
T1 construct: purchased Invitrogen PV3143
T1 sequence (P08581 956-1390 limits assumed): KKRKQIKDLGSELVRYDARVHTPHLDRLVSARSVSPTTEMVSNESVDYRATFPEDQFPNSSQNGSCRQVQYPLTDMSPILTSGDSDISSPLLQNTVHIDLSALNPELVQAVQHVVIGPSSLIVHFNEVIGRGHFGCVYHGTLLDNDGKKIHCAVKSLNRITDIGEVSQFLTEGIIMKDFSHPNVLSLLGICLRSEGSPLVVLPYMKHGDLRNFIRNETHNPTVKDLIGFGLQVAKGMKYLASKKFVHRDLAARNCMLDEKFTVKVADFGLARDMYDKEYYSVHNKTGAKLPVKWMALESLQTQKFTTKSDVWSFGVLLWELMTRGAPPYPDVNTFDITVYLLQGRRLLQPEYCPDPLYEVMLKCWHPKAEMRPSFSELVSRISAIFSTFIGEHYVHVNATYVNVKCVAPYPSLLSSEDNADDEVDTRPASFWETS
Kind of experiment: Inhibition of c-Met kinase activity using Transcreener FP assay. The following applies: Poly E4Y substrate, 28° C. 45 min. The format is biochemical. Here is the method:
Compound dilution: dilute test articles to 5 folds of the testing concentration using 20% DMSO.
The mixture is kept on ice until use;
Prepare ATP standard curve stock as following:
3. Enzymatic reaction: in 96-well reaction plate
Add 5 μL of test article or 5 μL of 20% DMSO or 5 μL of 500 mM EDTA;
Add 10 μL of Enzyme/Substrate stock;
Add 10 μL of ATP Diluent to begin the enzyme reaction and mix on plate shaker;
Add 5 μL of 20% DMSO, 10 μL of assay buffer and 10 μL of ATP standard curve stock into standard curve wells;
Gently shake at 28° C. for 45 min.
4. Stop reaction and detect ADP
Prepare Detection Mix: According to the procedures described in the Assay kit, Alexa633 tracer, ADP antibody and stop & detect buffer were added into H2O and mixed thoroughly. Prepare Tracer Only control: According to the procedures described in the Assay kit, ADP Alexa633 tracer and stop & detect buffer were added to H2O and mixed throughly.
Prepare No Tracer control: According to the procedures described in the Assay kit, the stop & detect buffer was diluted with H2O;
Add 25 μL of detection mix, Tracer Only control and No Tracer control into corresponding wells, respectively;
The reaction plate was gently shaken at 28° C. for 1 h;
Florescence polarization (FP) was measured on TECAN F500. Excitation wavelength: 610 nm, Emission wavelength: 670 nm.
Compound well [ADP] represents the ADP concentration of the compound well. Positive control well [ADP] represents the ADP concentration of the 20% DMSO well. Conversion of mP value to ADP concentration is based on the formula which is determined by standard curve.
IC50: calculated using XL-Fit 2.0 software.

Setting [1] is: read-out: IC50, inhibition of c-Met kinase activity.

For the compound `Cn1cc(-c2cnc3nnn(Cc4ccc5ncc(Cl)n5c4)c3n2)cn1` [Compound 300], the IC50 under setting [1] lay in the range of 1 to 100 nM.

On to `CC(C)n1cc(-c2ccc3nnn(Cc4ccc5nccn5c4)c3n2)cn1` [Compound 136], for which the IC50 under setting [1] lay within 1 to 100 nM.

For `FC(F)(F)Cn1cc(-c2ccc3nnn(Cc4ccc5ncccc5n4)c3n2)cn1` [Compound 292], the half-maximal inhibitory concentration (IC50) under setting [1] was 100 to 1000 nM.

For `COCCNc1cncc(Nc2cnc3nnn(Cc4ccc5ncccc5c4)c3n2)c1` [Compound 203], the 50% inhibitory concentration (IC50) under setting [1] lay within 1 to 100 nM.

As to `N#Cc1ccc(-c2ccc3nnn(Cc4ccc5ncccc5c4)c3n2)cn1` [Compound 103], the IC50 under setting [1] was in the range of 100 to 1000 nM.

For `c1nc2ccc(Cn3nnc4ncc(-c5cnn(C6CCOCC6)c5)nc43)cn2n1` [Compound 55], under setting [1], the IC50 was in the range of 100 to 1000 nM.

`COc1cccc(-c2ccc3nnn(Cc4c[nH]c5ncccc45)c3n2)c1` [Compound 112]: the IC50 under setting [1] lay within 1 to 100 nM.

Take `Cc1cncc(Nc2cnc3nnn(Cc4ccc5ncccc5c4)c3n2)c1` [Compound 158]: the IC50 under setting [1] was in the range of 1 to 100 nM.

On to `c1cnc2ccc(Cn3nnc4ncc(Nc5cc[nH]n5)nc43)cc2c1` [Compound 198], for which the IC50 under setting [1] was in the range of 1 to 100 nM.

In the case of `O[C@@H]1CCC[C@H]1Nc1ccnc(Nc2ccc3nnn(Cc4ccc5ncccc5c4)c3n2)c1` [Compound 219], under setting [1], the half-inhibitory concentration (IC50) was 100 to 1000 nM.

Turning to `COc1ccncc1Nc1cnc2nnn(Cc3ccc4ncccc4c3)c2n1` [Compound 210], the IC50 under setting [1] is 1 to 100 nM.

Consider `O=C(O)Cn1cc(-c2ccc3nnn(Cc4ccc5ncccc5c4)c3n2)cn1` [Compound 66], for which, under setting [1], the IC50 lay in the range of 100 to 1000 nM.

In the case of `Cn1cc(Nc2cnc3nnn(Cc4ccc5ncccc5c4)c3n2)cn1` [Compound 173], under setting [1], the IC50 lay within 1 to 100 nM.

For the compound `Cn1cnc(-c2ccc3nnn(Cc4ccc5ncccc5c4)c3n2)c1` [Compound 108], the IC50 under setting [1] is 100 to 1000 nM.

On to `Cn1cc(-c2cc(Cl)c3nnn(Cc4ccc5ncccc5c4)c3n2)cn1` [Compound 263, 6-((7-Chloro-5-(1-methyl-1H-pyrazol-4-yl)-3H-[1,2,3]triazolo[4,5-b]pyridin-3-yl)methyl)quinoline], for which, under setting [1], the IC50 lay in the range of 100 to 1000 nM.

With `COCCn1cc(-c2cnc3nnn(Cc4n[nH]c5ncccc45)c3n2)cn1` [Compound 15], the IC50 under setting [1] is 1 to 100 nM.

As to `CC(=O)Nc1ccc(-c2ccc3nnn(Cc4ccc5ncccc5c4)c3n2)cn1` [Compound 91], the half-maximal inhibitory concentration (IC50) under setting [1] lay in the range of 1 to 100 nM.

Regarding `c1cn2cc(Cn3nnc4ccc(-c5cnn(C6CCOCC6)c5)nc43)ccc2n1` [Compound 143], the IC50 under setting [1] was 100 to 1000 nM.

As to `OCCn1cnc(-c2ccc3nnn(Cc4ccc5ncccc5c4)c3n2)c1` [Compound 109], the IC50 under setting [1] is 100 to 1000 nM.

`OCCOc1ccnc(Nc2cnc3nnn(Cc4ccc5ncccc5c4)c3n2)c1` [Compound 201]: the IC50 under setting [1] lay within 100 to 1000 nM.

Turning to `Cc1cc(Nc2cnc3nnn(Cc4ccc5ncccc5c4)c3n2)cc(C)n1` [Compound 224], the concentration for half-maximal inhibition (IC50) under setting [1] lay in the range of 1 to 100 nM.

As for `COCCOc1ccncc1Nc1cnc2nnn(Cc3ccc4ncccc4c3)c2n1` [Compound 208], under setting [1], the IC50 lay within 100 to 1000 nM.

Consider `c1cnc2ccc(Cn3nnc4ncc(Nc5ccsc5)nc43)cc2c1` [Compound 161], for which, under setting [1], the IC50 fell in the range of 1 to 100 nM.

Regarding `CNc1ccc(Nc2cnc3nnn(Cc4ccc5ncccc5c4)c3n2)cn1` [Compound 187], under setting [1], the IC50 was in the range of 100 to 1000 nM.

Take `OCCn1cc(-c2cnc3nnn(Cc4ccc5nccn5n4)c3n2)cn1` [Compound 281]: under setting [1], the IC50 lay within 1 to 100 nM.

With `CCC(c1ccc2nccn2c1)n1nnc2ncc(-c3cnn(C)c3)nc21` (centres unmarked) [Compound 326], the IC50 under setting [1] lay in the range of 1 to 100 nM.

With `Cn1cc(-c2cnc3nnn(Cc4ccc5ncc(CO)n5c4)c3n2)cn1` [Compound 272], the IC50 under setting [1] is 1 to 100 nM.

With `c1cc(-c2cnc3nnn(Cc4ccc5nccn5c4)c3n2)ccn1` [Compound 275], the IC50 under setting [1] is 1 to 100 nM.

For the compound `Clc1cncc(Oc2cnc3nnn(Cc4ccc5ncccc5c4)c3n2)c1` [Compound 254], the IC50 under setting [1] lay within 1 to 100 nM.

Turning to `Cc1cccnc1Nc1cnc2nnn(Cc3ccc4ncccc4c3)c2n1` [Compound 188], the half-inhibitory concentration (IC50) under setting [1] lay within 1 to 100 nM.

`N#CCn1cc(-c2cnc3nnn(Cc4ccc5nccn5c4)c3n2)cn1` [Compound 35]: under setting [1], the IC50 was in the range of 1 to 100 nM.

As for `Nc1cccc(Oc2cnc3nnn(Cc4ccc5ncccc5c4)c3n2)n1` [Compound 259], the IC50 under setting [1] was in the range of 1 to 100 nM.

On to `CC(C)n1cc(-c2cnc3nnn(Cc4cc5[nH]ncc5s4)c3n2)cn1` [Compound 26], for which the 50% inhibitory concentration (IC50) under setting [1] lay in the range of 1 to 100 nM.

`Cc1cccc(Oc2cnc3nnn(Cc4ccc5ncccc5c4)c3n2)n1` [Compound 255]: the IC50 under setting [1] was in the range of 1 to 100 nM.

Turning to `N#Cc1ccc(Nc2cnc3nnn(Cc4ccc5ncccc5c4)c3n2)nc1` [Compound 225], the IC50 under setting [1] lay within 1 to 100 nM.

Take `FC(F)(F)c1cccc(Nc2cnc3nnn(Cc4ccc5ncccc5c4)c3n2)n1` [Compound 221]: the half-inhibitory concentration (IC50) under setting [1] is 1 to 100 nM.

Take `COCCn1cc(-c2ccc3nnn(Cc4ccc5ncccc5c4)c3n2)cn1` [Compound 93]: under setting [1], the IC50 is 100 to 1000 nM.

Take `Cn1cc(-c2ccc3nnn(Cc4ccc5nccn5c4)c3n2)cn1` [Compound 133]: the IC50 under setting [1] lay in the range of 1 to 100 nM.

Consider `COc1cccnc1Nc1cnc2nnn(Cc3ccc4ncccc4c3)c2n1` [Compound 213], for which, under setting [1], the 50% inhibitory concentration (IC50) lay in the range of 1 to 100 nM.

As for `COc1cncc(Nc2ccc3nnn(Cc4ccc5ncccc5c4)c3n2)c1` [Compound 180], the IC50 under setting [1] fell in the range of 1 to 100 nM.

In the case of `OC1(CNc2ccc3nnn(Cc4ccc5ncccc5c4)c3n2)CCCCC1` [Compound 247], under setting [1], the IC50 lay within 100 to 1000 nM.

Consider `COCCNc1cc(-c2ccc3nnn(Cc4ccc5ncccc5c4)c3n2)ccn1` [Compound 110], for which the IC50 under setting [1] fell in the range of 100 to 1000 nM.

As to `OCCn1cc(-c2ccc3nnn(Cc4ccc5ncccc5c4F)c3n2)cn1` [Compound 130], the IC50 under setting [1] lay within 1 to 100 nM.

`C[C@H](c1ccc2nccn2c1)n1nnc2ncc(-c3cnn(C)c3)nc21` [Compound 271]: the IC50 (IC50, inhibition of c-Met kinase activity) lay in the range of 1 to 100 nM.

Turning to `C[C@H](c1ccc2ncccc2c1)n1nnc2ccc(-c3cnn(CCO)c3)nc21` [Compound 78], under setting [1], the IC50 fell in the range of 100 to 1000 nM.

For `CNc1cc(Nc2cnc3nnn(Cc4ccc5ncccc5c4)c3n2)ccn1` [Compound 231], the IC50 under setting [1] lay within 100 to 1000 nM.

As to `Cn1cc(-c2ccc3nnn(Cc4ccc5ncsc5n4)c3n2)cn1` [Compound 142], the half-inhibitory concentration (IC50) under setting [1] was in the range of 100 to 1000 nM.

Consider `CNC(=O)c1ccnc(Nc2cnc3nnn(Cc4ccc5ncccc5c4)c3n2)c1` [Compound 174], for which the 50% inhibitory concentration (IC50) under setting [1] fell in the range of 100 to 1000 nM.

`C[C@@H](c1ccc2ncccc2c1)n1nnc2ccc(-c3cnn(CCO)c3)nc21` [Compound 77]: the IC50 under setting [1] was in the range of 1 to 100 nM.

With `Cc1cc(Nc2cnc3nnn(Cc4ccc5ncccc5c4)c3n2)ccn1` [Compound 163], the IC50 under setting [1] is 1 to 100 nM.

For the compound `CC(=O)Nc1ccc(-c2ccc3nnn(Cc4c[nH]c5ncccc45)c3n2)cn1` [Compound 115], under setting [1], the IC50 was in the range of 1 to 100 nM.

`c1nc2ccc(Cn3nnc4ncc(-c5cnn(C6CNC6)c5)nc43)cn2n1` [Compound 286]: under setting [1], the IC50 fell in the range of 100 to 1000 nM.

Regarding `OCCn1cc(-c2ccc3nnn(Cc4n[nH]c5ncccc45)c3n2)cn1` [Compound 138], the 50% inhibitory concentration (IC50) under setting [1] fell in the range of 100 to 1000 nM.

As to `OCCNc1ccnc(Nc2cnc3nnn(Cc4ccc5ncccc5c4)c3n2)c1` [Compound 205], the IC50 under setting [1] fell in the range of 100 to 1000 nM.

Take `CNCCCn1cc(-c2ccc3nnn(Cc4ccc5ncccc5c4)c3n2)cn1` [Compound 92]: under setting [1], the IC50 lay within 100 to 1000 nM.

Regarding `CC(c1ccc2ncsc2c1)n1nnc2ncc(-c3cnn(C)c3)nc21` (centres unmarked) [Compound 19], under setting [1], the IC50 lay within 1 to 100 nM.

For the compound `N#CCn1cc(-c2cnc3nnn(Cc4ccn5nccc5c4)c3n2)cn1` [Compound 301], the 50% inhibitory concentration (IC50) under setting [1] fell in the range of 1 to 100 nM.

For the compound `Clc1ccc(Nc2cnc3nnn(Cc4ccc5ncccc5c4)c3n2)nc1` [Compound 164], under setting [1], the 50% inhibitory concentration (IC50) is 1 to 100 nM.

Consider `OCCOc1cc(Nc2cnc3nnn(Cc4ccc5ncccc5c4)c3n2)ccn1` [Compound 194], for which the IC50 under setting [1] lay within 1 to 100 nM.

Turning to `CNC(=O)c1cncc(Nc2cnc3nnn(Cc4ccc5ncccc5c4)c3n2)c1` [Compound 192], the 50% inhibitory concentration (IC50) under setting [1] fell in the range of 1 to 100 nM.

With `COc1ccc(Nc2cnc3nnn(Cc4ccc5ncccc5c4)c3n2)cn1` [Compound 162], under setting [1], the IC50 was 1 to 100 nM.

For `OCCn1cc(Nc2cnc3nnn(Cc4ccc5ncsc5c4)c3n2)cn1` [Compound 240], the half-inhibitory concentration (IC50) under setting [1] was in the range of 1 to 100 nM.

Turning to `CC(c1ccc2ncsc2c1)n1nnc2ncc(-c3cnn(CCO)c3)nc21` (centres unmarked) [Compound 20], the half-maximal inhibitory concentration (IC50) under setting [1] fell in the range of 1 to 100 nM.

Turning to `CN1CCC(n2cc(-c3ccc4nnn(Cc5ccc6ncccc6c5)c4n3)cn2)CC1` [Compound 101], the IC50 under setting [1] fell in the range of 100 to 1000 nM.

In the case of `c1cnc2ccc(Cn3nnc4ncc(Nc5cncc(N6CCOCC6)c5)nc43)cc2c1` [Compound 193], under setting [1], the 50% inhibitory concentration (IC50) fell in the range of 1 to 100 nM.

For `COCc1cnn2ccc(Cn3nnc4ncc(-c5cnn(CCO)c5)nc43)cc12` [Compound 322, 2-(4-(1-((3-(Methoxymethyl)pyrazolo[1,5-a]pyridin-5-yl)methyl)-1H-[1,2,3]triazolo[4,5-b]pyrazin-6-yl)-1H-pyrazol-1-yl)ethanol], under setting [1], the half-maximal inhibitory concentration (IC50) is 1 to 100 nM.

Regarding `Cn1ccc(Nc2ccc3nnn(Cc4ccc5ncccc5c4)c3n2)n1` [Compound 189], the IC50 under setting [1] was in the range of 1 to 100 nM.

Consider `OCCn1cc(-c2ccc3nnn(Cc4ccc5ncnn5c4)c3n2)cn1` [Compound 126], for which, under setting [1], the half-inhibitory concentration (IC50) was in the range of 100 to 1000 nM.
